Measured values as given in ChEMBL document CHEMBL4665836, “Overcoming β-Lactam resistance in Pseudomonas aeruginosa using non-canonical tobramycin-based antibiotic adjuvants” (2020).

Columns and labels:
Type in all cases: functional
[1] = tested on: Pseudomonas aeruginosa; assay: Potentiation of ceftazidime-induced antibacterial activity against carbapenem-resistant Pseudomonas aeruginosa 88949 clinical isolate assessed as fold reduction in ceftazidime MIC at 8 uM in presence of beta-lactamase inhibitor, avi-bactam
[2] = tested on: Pseudomonas aeruginosa; assay: Potentiation of imipenem-induced antibacterial activity against carbapenem-resistant Pseudomonas aeruginosa 109084 clinical isolate assessed as imipenem MIC at 8 uM by checkerboard assay (reference value: 16 ug/ml)
[3] = tested on: Pseudomonas aeruginosa; assay: Potentiation of imipenem-induced antibacterial activity against carbapenem-resistant Pseudomonas aeruginosa 107092 clinical isolate assessed as imipenem MIC at 8 uM by checkerboard assay (reference value: 64 ug/ml)
[4] = tested on: Pseudomonas aeruginosa; assay: Potentiation of imipenem-induced antibacterial activity against carbapenem and colistin-resistant Pseudomonas aeruginosa 101243 clinical isolate assessed as imipenem MIC at 8 uM by checkerboard assay (reference value: 8 ug/ml)
[5] = tested on: Pseudomonas aeruginosa; assay: Potentiation of imipenem-induced antibacterial activity against carbapenem-resistant Pseudomonas aeruginosa 262-101856 clinical isolate assessed as imipenem MIC at 8 uM by checkerboard assay (reference value: 32 ug/ml)
[6] = tested on: Pseudomonas aeruginosa; assay: Potentiation of ceftazidime-induced antibacterial activity against carbapenem-resistant Pseudomonas aeruginosa PAO750 harboring and mexAB-oprM/mexCD-oprJ/mexEF-oprN/mexJK/mexXY/opmH efflux deficient mutant assessed as ceftazidime MIC at 8 uM by checkerboard assay (reference value: 0.5 ug/ml)
[7] = tested on: Pseudomonas aeruginosa; assay: Potentiation of ceftazidime-induced antibacterial activity against carbapenem and colistin-resistant Pseudomonas aeruginosa 101243 clinical isolate assessed as ceftazidime MIC at 8 uM by checkerboard assay (reference value: 64 ug/ml)
[8] = tested on: Pseudomonas aeruginosa; assay: Potentiation of aztreonam-induced antibacterial activity against carbapenem-resistant Pseudomonas aeruginosa 101885 clinical isolate assessed as aztreonam MIC at 8 uM by checkerboard assay (reference value: 16 ug/ml)
[9] = tested on: Pseudomonas aeruginosa; assay: Potentiation of aztreonam-induced antibacterial activity against carbapenem and colistin-resistant Pseudomonas aeruginosa 91433 clinical isolate assessed as aztreonam MIC at 8 uM by checkerboard assay (reference value: 16 ug/ml)

Row | SMILES | fold change (FC) [1] | MIC [2] | MIC [3] | MIC [4] | MIC [5] | MIC [6] | MIC [7] | MIC [8] | MIC [9]
1 | NC[C@H]1O[C@H](O[C@H]2[C@H](OCCCCc3cn(CCCCO[C@@H]4[C@@H](O[C@H]5O[C@H](CO)[C@@H](O)[C@H](N)[C@H]5O)[C@H](N)C[C@H](N)[C@H]4O[C@H]4O[C@H](CN)[C@@H](O)C[C@H]4N)nn3)[C@@H](O[C@H]3O[C@H](CO)[C@@H](O)[C@H](N)[C@H]3O)[C@H](N)C[C@@H]2N)[C@H](N)C[C@@H]1O.O=C(O)C(F)(F)F.O=C(O)C(F)(F)F.O=C(O)C(F)(F)F.O=C(O)C(F)(F)F.O=C(O)C(F)(F)F.O=C(O)C(F)(F)F.O=C(O)C(F)(F)F.O=C(O)C(F)(F)F.O=C(O)C(F)(F)F.O=C(O)C(F)(F)F | 16 | 8 µg/mL | 16 µg/mL | 8 µg/mL | 2 µg/mL | 0.06 µg/mL | 64 µg/mL | 4 µg/mL | 4 µg/mL
2 | Cl.Cl.Cl.Cl.Cl.NC[C@H]1O[C@H](O[C@H]2[C@H](OCCCCCCCCCCCCN3CCN(c4cc5c(cc4F)c(=O)c(C(=O)O)cn5C4CC4)CC3)[C@@H](O)[C@H](N)C[C@@H]2N)[C@H](N)C[C@@H]1O | 16 | 8 µg/mL | 16 µg/mL | 4 µg/mL | 8 µg/mL | 0.01 µg/mL | 4 µg/mL | 4 µg/mL | 8 µg/mL
3 | N=C(N)NC[C@H]1O[C@H](O[C@H]2[C@H](OCCCCCCCCCCCCN3CCN(c4cc5c(cc4F)c(=O)c(C(=O)O)cn5C4CC4)CC3)[C@@H](O[C@H]3O[C@H](CO)[C@@H](O)[C@H](NC(=N)N)[C@H]3O)[C@H](NC(=N)N)C[C@@H]2NC(=N)N)[C@H](NC(=N)N)C[C@@H]1O.O=C(O)C(F)(F)F.O=C(O)C(F)(F)F.O=C(O)C(F)(F)F.O=C(O)C(F)(F)F.O=C(O)C(F)(F)F.O=C(O)C(F)(F)F | 16 | 16 µg/mL | 32 µg/mL | 4 µg/mL | 16 µg/mL | 0.25 µg/mL | 16 µg/mL | 4 µg/mL | 16 µg/mL
